# From ChEMBL document CHEMBL1146091, “Benzoylphenylurea sulfur analogues with potent antitumor activity” (J Med Chem, 2006)
# Tested on: Panc430
# Assay: Cytotoxicity against human Panc430 cell line by MTT assay
# Type: functional, cell-based
# Conditions: not given
row,Compound,IC50 [nM]
1,Cc1cc(NC(=O)NC(=O)c2ccccc2N(C)C)ccc1Oc1ncc(Br)cn1,800
2,O=C(NC(=O)c1ccccc1)Nc1ccc(Sc2ncc(Br)cn2)cc1,2000
3,Nc1ccccc1C(=O)NC(=O)Nc1ccc(Sc2ncccn2)cc1,6500
4,O=C(NC(=O)c1ccccc1[N+](=O)[O-])Nc1ccc(Oc2ncc(Br)cn2)cc1,10000
5,O=C(NC(=O)c1ccccc1[N+](=O)[O-])Nc1ccc(S(=O)(=O)c2ncc(Br)cn2)cc1,> 10000
6,Nc1ccccc1C(=O)NC(=O)Nc1ccc(Sc2ncc(Br)cn2)cc1,200
7,O=C(NC(=S)Nc1ccc(Sc2ncc(Br)cn2)cc1)c1ccccc1,7500
8,O=C(NC(=O)c1ccccc1[N+](=O)[O-])Nc1ccc(Sc2ncc(Br)cn2)cc1,90
9,O=C(NC(=O)c1ccccc1[N+](=O)[O-])Nc1ccc([S+]([O-])c2ncc(Br)cn2)cc1 (configuration not stated),5500
10,Nc1ccccc1C(=O)NC(=O)Nc1ccc(Oc2ncc(Br)cn2)cc1,> 10000

# Tested on: PANC-1
# Assay: Cytotoxicity against human Panc1 cell line by MTT assay
# Type: functional, cell-based
# Conditions: not given
row,Compound,IC50 [nM]
1,Cc1cc(NC(=O)NC(=O)c2ccccc2N(C)C)ccc1Oc1ncc(Br)cn1,700
2,O=C(NC(=O)c1ccccc1)Nc1ccc(Sc2ncc(Br)cn2)cc1,> 10000
3,Nc1ccccc1C(=O)NC(=O)Nc1ccc(Sc2ncccn2)cc1,7500
4,O=C(NC(=O)c1ccccc1[N+](=O)[O-])Nc1ccc(Oc2ncc(Br)cn2)cc1,680
5,O=C(NC(=O)c1ccccc1[N+](=O)[O-])Nc1ccc(S(=O)(=O)c2ncc(Br)cn2)cc1,> 10000
6,Nc1ccccc1C(=O)NC(=O)Nc1ccc(Sc2ncc(Br)cn2)cc1,90
7,O=C(NC(=S)Nc1ccc(Sc2ncc(Br)cn2)cc1)c1ccccc1,9500
8,O=C(NC(=O)c1ccccc1[N+](=O)[O-])Nc1ccc(Sc2ncc(Br)cn2)cc1,85
9,O=C(NC(=O)c1ccccc1[N+](=O)[O-])Nc1ccc([S+]([O-])c2ncc(Br)cn2)cc1 (configuration not stated),6500
10,Nc1ccccc1C(=O)NC(=O)Nc1ccc(Oc2ncc(Br)cn2)cc1,3500

# Tested on: MCF7
# Assay: Induction of apoptosis in human MCF7 cell line at 30 nM after 48 hrs
# Type: functional
# Conditions: not given
row,Compound,Activity [%]
1,Cc1cc(NC(=O)NC(=O)c2ccccc2N(C)C)ccc1Oc1ncc(Br)cn1,19.5
2,O=C(NC(=O)c1ccccc1[N+](=O)[O-])Nc1ccc(Sc2ncc(Br)cn2)cc1,51.2

# Tested on: LAPC4
# Assay: Cytotoxicity against human LAPC4 cell line by MTT assay
# Type: functional, cell-based
# Conditions: not given
row,Compound,IC50 [nM]
1,O=C(NC(=O)c1ccccc1[N+](=O)[O-])Nc1ccc(Sc2ncccn2)cc1,600
2,Cc1cc(NC(=O)NC(=O)c2ccccc2N(C)C)ccc1Oc1ncc(Br)cn1,250
3,O=C(NC(=O)c1ccccc1[N+](=O)[O-])Nc1ccc(Oc2ncc(Br)cn2)cc1,200
4,O=C(NC(=O)c1ccccc1[N+](=O)[O-])Nc1ccc(S(=O)(=O)c2ncc(Br)cn2)cc1,4000
5,Nc1ccccc1C(=O)NC(=O)Nc1ccc(Sc2ncc(Br)cn2)cc1,100
6,O=C(NC(=S)Nc1ccc(Sc2ncc(Br)cn2)cc1)c1ccccc1,6000
7,O=C(NC(=O)c1ccccc1[N+](=O)[O-])Nc1ccc(Sc2ncc(Br)cn2)cc1,50
8,Nc1ccccc1C(=O)NC(=O)Nc1ccc(Oc2ncc(Br)cn2)cc1,750

# Tested on: MCF7
# Assay: Induction of apoptosis in human MCF7 cell line at 10 nM after 48 hrs
# Type: functional
# Conditions: not given
row,Compound,Activity [%]
1,Cc1cc(NC(=O)NC(=O)c2ccccc2N(C)C)ccc1Oc1ncc(Br)cn1,16.1
2,O=C(NC(=O)c1ccccc1[N+](=O)[O-])Nc1ccc(Sc2ncc(Br)cn2)cc1,29.7

# Tested on: Panc203
# Assay: Cytotoxicity against human Panc203 cell line by MTT assay
# Type: functional, cell-based
# Conditions: not given
row,Compound,IC50 [nM]
1,Cc1cc(NC(=O)NC(=O)c2ccccc2N(C)C)ccc1Oc1ncc(Br)cn1,950
2,O=C(NC(=O)c1ccccc1)Nc1ccc(Sc2ncc(Br)cn2)cc1,7500
3,Nc1ccccc1C(=O)NC(=O)Nc1ccc(Sc2ncccn2)cc1,5500
4,O=C(NC(=O)c1ccccc1[N+](=O)[O-])Nc1ccc(Oc2ncc(Br)cn2)cc1,> 10000
5,O=C(NC(=O)c1ccccc1[N+](=O)[O-])Nc1ccc(S(=O)(=O)c2ncc(Br)cn2)cc1,> 10000
6,Nc1ccccc1C(=O)NC(=O)Nc1ccc(Sc2ncc(Br)cn2)cc1,85
7,O=C(NC(=S)Nc1ccc(Sc2ncc(Br)cn2)cc1)c1ccccc1,> 10000
8,O=C(NC(=O)c1ccccc1[N+](=O)[O-])Nc1ccc(Sc2ncc(Br)cn2)cc1,700
9,O=C(NC(=O)c1ccccc1[N+](=O)[O-])Nc1ccc([S+]([O-])c2ncc(Br)cn2)cc1 (configuration not stated),5500
10,Nc1ccccc1C(=O)NC(=O)Nc1ccc(Oc2ncc(Br)cn2)cc1,> 10000

# Tested on: Panc1005
# Assay: Cytotoxicity against human Panc1005 cell line by MTT assay
# Type: functional, cell-based
# Conditions: not given
row,Compound,IC50 [nM]
1,Cc1cc(NC(=O)NC(=O)c2ccccc2N(C)C)ccc1Oc1ncc(Br)cn1,5000
2,O=C(NC(=O)c1ccccc1)Nc1ccc(Sc2ncc(Br)cn2)cc1,> 10000
3,Nc1ccccc1C(=O)NC(=O)Nc1ccc(Sc2ncccn2)cc1,> 10000
4,O=C(NC(=O)c1ccccc1[N+](=O)[O-])Nc1ccc(Oc2ncc(Br)cn2)cc1,> 10000
5,O=C(NC(=O)c1ccccc1[N+](=O)[O-])Nc1ccc(S(=O)(=O)c2ncc(Br)cn2)cc1,> 10000
6,Nc1ccccc1C(=O)NC(=O)Nc1ccc(Sc2ncc(Br)cn2)cc1,10000
7,O=C(NC(=S)Nc1ccc(Sc2ncc(Br)cn2)cc1)c1ccccc1,> 10000
8,O=C(NC(=O)c1ccccc1[N+](=O)[O-])Nc1ccc(Sc2ncc(Br)cn2)cc1,10000
9,O=C(NC(=O)c1ccccc1[N+](=O)[O-])Nc1ccc([S+]([O-])c2ncc(Br)cn2)cc1 (configuration not stated),5500
10,Nc1ccccc1C(=O)NC(=O)Nc1ccc(Oc2ncc(Br)cn2)cc1,> 10000

# Tested on: LNCaP
# Assay: Cytotoxicity against human LnCaP cell line by MTT assay
# Type: functional, cell-based
# Conditions: not given
row,Compound,IC50 [nM]
1,O=C(NC(=O)c1ccccc1[N+](=O)[O-])Nc1ccc(Sc2ncccn2)cc1,500
2,Cc1cc(NC(=O)NC(=O)c2ccccc2N(C)C)ccc1Oc1ncc(Br)cn1,500
3,O=C(NC(=O)c1ccccc1[N+](=O)[O-])Nc1ccc(Oc2ncc(Br)cn2)cc1,1000
4,O=C(NC(=O)c1ccccc1[N+](=O)[O-])Nc1ccc(S(=O)(=O)c2ncc(Br)cn2)cc1,500
5,Nc1ccccc1C(=O)NC(=O)Nc1ccc(Sc2ncc(Br)cn2)cc1,500
6,O=C(NC(=S)Nc1ccc(Sc2ncc(Br)cn2)cc1)c1ccccc1,> 10000
7,O=C(NC(=O)c1ccccc1[N+](=O)[O-])Nc1ccc(Sc2ncc(Br)cn2)cc1,50
8,Nc1ccccc1C(=O)NC(=O)Nc1ccc(Oc2ncc(Br)cn2)cc1,750

# Tested on: MIA PaCa-2
# Assay: Cytotoxicity against human Miapaca2 cell line by MTT assay
# Type: functional, cell-based
# Conditions: not given
row,Compound,IC50 [nM]
1,Cc1cc(NC(=O)NC(=O)c2ccccc2N(C)C)ccc1Oc1ncc(Br)cn1,850
2,O=C(NC(=O)c1ccccc1)Nc1ccc(Sc2ncc(Br)cn2)cc1,5000
3,Nc1ccccc1C(=O)NC(=O)Nc1ccc(Sc2ncccn2)cc1,7000
4,O=C(NC(=O)c1ccccc1[N+](=O)[O-])Nc1ccc(Oc2ncc(Br)cn2)cc1,740
5,O=C(NC(=O)c1ccccc1[N+](=O)[O-])Nc1ccc(S(=O)(=O)c2ncc(Br)cn2)cc1,6100
6,Nc1ccccc1C(=O)NC(=O)Nc1ccc(Sc2ncc(Br)cn2)cc1,95
7,O=C(NC(=S)Nc1ccc(Sc2ncc(Br)cn2)cc1)c1ccccc1,10000
8,O=C(NC(=O)c1ccccc1[N+](=O)[O-])Nc1ccc(Sc2ncc(Br)cn2)cc1,86
9,O=C(NC(=O)c1ccccc1[N+](=O)[O-])Nc1ccc([S+]([O-])c2ncc(Br)cn2)cc1 (configuration not stated),8000
10,Nc1ccccc1C(=O)NC(=O)Nc1ccc(Oc2ncc(Br)cn2)cc1,920

# Tested on: CWR22R
# Assay: Cytotoxicity against human CWR22R cell line by MTT assay
# Type: functional, cell-based
# Conditions: 22Rv1
row,Compound,IC50 [nM]
1,O=C(NC(=O)c1ccccc1[N+](=O)[O-])Nc1ccc(Sc2ncccn2)cc1,5000
2,Cc1cc(NC(=O)NC(=O)c2ccccc2N(C)C)ccc1Oc1ncc(Br)cn1,1000
3,O=C(NC(=O)c1ccccc1[N+](=O)[O-])Nc1ccc(Oc2ncc(Br)cn2)cc1,5000
4,O=C(NC(=O)c1ccccc1[N+](=O)[O-])Nc1ccc(S(=O)(=O)c2ncc(Br)cn2)cc1,> 10000
5,Nc1ccccc1C(=O)NC(=O)Nc1ccc(Sc2ncc(Br)cn2)cc1,500
6,O=C(NC(=S)Nc1ccc(Sc2ncc(Br)cn2)cc1)c1ccccc1,> 10000
7,O=C(NC(=O)c1ccccc1[N+](=O)[O-])Nc1ccc(Sc2ncc(Br)cn2)cc1,50
8,Nc1ccccc1C(=O)NC(=O)Nc1ccc(Oc2ncc(Br)cn2)cc1,2000

# Tested on: Hs 766
# Assay: Cytotoxicity against human HS766 cell line by MTT assay
# Type: functional, cell-based
# Conditions: not given
row,Compound,IC50 [nM]
1,Cc1cc(NC(=O)NC(=O)c2ccccc2N(C)C)ccc1Oc1ncc(Br)cn1,1000
2,O=C(NC(=O)c1ccccc1)Nc1ccc(Sc2ncc(Br)cn2)cc1,5500
3,Nc1ccccc1C(=O)NC(=O)Nc1ccc(Sc2ncccn2)cc1,8000
4,O=C(NC(=O)c1ccccc1[N+](=O)[O-])Nc1ccc(Oc2ncc(Br)cn2)cc1,470
5,O=C(NC(=O)c1ccccc1[N+](=O)[O-])Nc1ccc(S(=O)(=O)c2ncc(Br)cn2)cc1,> 10000
6,Nc1ccccc1C(=O)NC(=O)Nc1ccc(Sc2ncc(Br)cn2)cc1,700
7,O=C(NC(=S)Nc1ccc(Sc2ncc(Br)cn2)cc1)c1ccccc1,8500
8,O=C(NC(=O)c1ccccc1[N+](=O)[O-])Nc1ccc(Sc2ncc(Br)cn2)cc1,88
9,O=C(NC(=O)c1ccccc1[N+](=O)[O-])Nc1ccc([S+]([O-])c2ncc(Br)cn2)cc1 (configuration not stated),6500
10,Nc1ccccc1C(=O)NC(=O)Nc1ccc(Oc2ncc(Br)cn2)cc1,270

# Tested on: MCF7
# Assay: Induction of apoptosis in human MCF7 cell line at 100 nM after 48 hrs
# Type: functional
# Conditions: not given
row,Compound,Activity [%]
1,Cc1cc(NC(=O)NC(=O)c2ccccc2N(C)C)ccc1Oc1ncc(Br)cn1,27.7
2,O=C(NC(=O)c1ccccc1[N+](=O)[O-])Nc1ccc(Sc2ncc(Br)cn2)cc1,53.6

# Target: Tubulin
# Assay: Inhibition of tubulin polymerization
# Type: protein-complex assay, Homo sapiens
# Conditions: not given
row,Compound,IC50 [nM]
1,O=C(NC(=O)c1ccccc1[N+](=O)[O-])Nc1ccc(Oc2ncc(Br)cn2)cc1,4700
2,Nc1ccccc1C(=O)NC(=O)Nc1ccc(Sc2ncc(Br)cn2)cc1,> 40000
3,O=C(NC(=O)c1ccccc1[N+](=O)[O-])Nc1ccc(Sc2ncc(Br)cn2)cc1,2100
4,Nc1ccccc1C(=O)NC(=O)Nc1ccc(Oc2ncc(Br)cn2)cc1,36000

# Tested on: ASPC1
# Assay: Cytotoxicity against human ASPC1 cell line by MTT assay
# Type: functional, cell-based
# Conditions: not given
row,Compound,IC50 [nM]
1,Cc1cc(NC(=O)NC(=O)c2ccccc2N(C)C)ccc1Oc1ncc(Br)cn1,850
2,O=C(NC(=O)c1ccccc1)Nc1ccc(Sc2ncc(Br)cn2)cc1,> 10000
3,Nc1ccccc1C(=O)NC(=O)Nc1ccc(Sc2ncccn2)cc1,6000
4,O=C(NC(=O)c1ccccc1[N+](=O)[O-])Nc1ccc(Oc2ncc(Br)cn2)cc1,770
5,O=C(NC(=O)c1ccccc1[N+](=O)[O-])Nc1ccc(S(=O)(=O)c2ncc(Br)cn2)cc1,> 10000
6,Nc1ccccc1C(=O)NC(=O)Nc1ccc(Sc2ncc(Br)cn2)cc1,450
7,O=C(NC(=S)Nc1ccc(Sc2ncc(Br)cn2)cc1)c1ccccc1,10000
8,O=C(NC(=O)c1ccccc1[N+](=O)[O-])Nc1ccc(Sc2ncc(Br)cn2)cc1,1000
9,O=C(NC(=O)c1ccccc1[N+](=O)[O-])Nc1ccc([S+]([O-])c2ncc(Br)cn2)cc1 (configuration not stated),2500
10,Nc1ccccc1C(=O)NC(=O)Nc1ccc(Oc2ncc(Br)cn2)cc1,5200

# Target: Tubulin (Homo sapiens) (UniProt P68371+Q9H4B7+P0DPH7+P68366+Q13509+Q71U36+P04350+Q3ZCM7+P07437+P68363+Q9BQE3+Q6PEY2+Q13885+Q9BVA1+Q9BUF5)
# Assay: Inhibition of [3H]colchicine binding to tubulin at 5 uM
# Type: protein-complex assay
# Conditions: not given
row,Compound,inhibition [%]
1,O=C(NC(=O)c1ccccc1[N+](=O)[O-])Nc1ccc(Oc2ncc(Br)cn2)cc1,21
2,COc1cc([C@@H]2c3cc4c(cc3[C@H](O)[C@H]3COC(=O)[C@H]23)OCO4)cc(OC)c1OC,77
3,O=C(NC(=O)c1ccccc1[N+](=O)[O-])Nc1ccc(Sc2ncc(Br)cn2)cc1,17
